Laboratory results: patent US20210212321A1, “STABILIZED FUNGICIDAL COMPOSITION COMPRISING CYCLODEXTRIN” (Bayer CropScience LP, priority 2018, published 2021)
Values belong to the molecule of their own block, whether it stands above or below them.

Assays:
Format in all cases: physicochemical
[1] = Storage stability of RAXIL PRO MD + penflufen with increasing methyl cyclodextrin (HPLC); conditions: RAXIL PRO MD+PFL (1.38% w/w), highest concentration of cyclodextrin (MeCD); two weeks at 54° C.
Text: A sample containing PTZ without any PFL or cyclodextrin was included as the “Control” in FIGS. 3 and 4.

[2] = Storage stability of prothioconazole/penflufen mixture with 25 wt % MeCD at various temperatures (HPLC); conditions: for % PFL / % Degradation (PTZ) / % PTZ: with 25 wt % MeCD
Procedure: Aqueous solutions of a mixture of prothioconazole (PTZ) at a concentration of about 1.5% (w/w), and penflufen at a concentration of about 1.65% (w/w), were prepared and physically mixed with MeCD at 25 wt %. These samples were stored for two weeks at 54° C., for eight weeks at 40° C., or for 6 months at 30° C. The initial amount of PTZ or PFL in each sample was measured together with the final amount of PTZ or PLF after storage using HPLC.

[3] = Storage of RAXIL PRO MD for two weeks with or without nitrogen purging; prothioconazole desthio quantified by LC-MS; conditions: sample D compared to samples A, B and C
Procedure: RAXIL® PRO MD is a commercial product containing 1.47% prothioconazole, 0.29% tebuconazole, and 0.59% metalaxyl in an aqueous formulation. Samples of RAXIL® PRO MD were subjected to nitrogen purging by bubbling nitrogen gas through the samples for about 5 minutes. Control samples were not purged with nitrogen. The samples were then divided into the groups outlined in Table 1. Samples were either maintained in the dark or exposed to ambient light. In addition, certain samples were wrapped in foil to minimize contact with ambient oxygen while others were not. All samples were stored at room temperature.
After two weeks of storage under these conditions, prothioconazole desthio was quantified in each sample using liquid chromatography mass spectrometry (LC-MS) using a SCIEX TRIPLE QUAD™6500 and a standard curve generated with a prothioconazole desthio chemical standard.

[4] = Storage of Prothioconazole SC for two months with or without nitrogen purging; prothioconazole desthio quantified by LC-MS; conditions: sample D compared to samples A and B
Procedure: All samples were stored in glass containers with exposure to ambient light at room temperature for two months. Certain samples were also wrapped with foil to limit exposure to ambient oxygen. At the conclusion of the storage period, prothioconazole desthio was quantified in each sample using LC-MS.
This study was conducted with the same group of samples stored for two months in containers made of plastic instead of glass, and similar results were observed.

[5] = Storage stability of aqueous prothioconazole solutions with or without cyclodextrins (LC-MS); conditions: two weeks at 54° C.
Procedure: Aqueous solutions of prothioconazole (PTZ) at a concentration of about 1% to about 1.5% (w/w) were prepared. These samples were stored for two weeks at 54° C., for eight weeks at 40° C., or for 52 weeks at 20° C. The initial amount of PTZ in each sample was measured together with the final amount of PTZ after storage using LC-MS as outlined in Example 1. From these measurements the percentage of PTZ remaining after storage was calculated and ranged from about 94% to about 97% (see FIG. 1A).
In a separate experiment, the ability of two different cyclodextrins, 2-hydroxypropyl-β cyclodextrin (HPCD) and methyl-β cyclodextrin (MeCD), to stabilize PTZ was evaluated. Aqueous solutions of PTZ at a concentration of about 1% to about 1.5% (w/w) were mixed with 15% (w/w) HPCD or 15% (w/w) MeCD. A control sample contained no cyclodextrins. The samples were stored for two weeks at 54° C., and the percentage of PTZ remaining after storage was calculated as before using LC-MS.

reduction in degradation of PFL [1]: 65% | % Degradation (PFL) ([2]; 0 weeks, 1.65 % (w/w)): 0% | % PFL ([2]; Table 3, 30° C. for 6 months): 1.62% | % PFL ([2]; Table 3, 40° C. for 8 weeks): 1.54% | % PFL ([2]; Table 3, 54° C. for 2 weeks): 1.6% | % PFL ([2]; Table 3, T0): 1.68% | % PFL ([2]; Table 4, 30° C. for 6 months): 1.58% | % PFL ([2]; Table 4, 40° C. for 8 weeks): 1.60% | % PFL ([2]; Table 4, 54° C. for 2 weeks): 1.58% | % PFL ([2]; Table 4, T0): 1.64%
Structure (SMILES): Cc1nn(C)c(F)c1C(=O)Nc1ccccc1C(C)CC(C)C (stereo not shown) [Penflufen, N[2-(1,3-dimethylbutyl)phenyl]-5-fluoro-1,3-dimethyl pyrazole-4-carboxamide]

Structure (SMILES): OC(Cc1ccccc1Cl)(Cn1nc[nH]c1=S)C1(Cl)CC1 (racemic) [Prothioconazole, 2-[2-(1-chlorocyclopropyl)-3-(2-chloro-phenyl)-2-hydroxy-propyl]-2,4-dihydro-3H-1,2,4-triazole-3-thione]
Level of degradation to prothioconazole desthio, samples not purged with nitrogen versus nitrogen-stabilized samples and samples stored in the dark [3]: over ten times higher | Level of degradation to prothioconazole desthio, sample exposed to light and ambient oxygen versus nitrogen-stabilized samples [4]: about ten times higher | degradation of PTZ ([5]; mixed with 15% (w/w) HPCD): no observable degradation | degradation of PTZ ([5]; mixed with 15% (w/w) MeCD): no observable degradation | reduction in degradation of PTZ [1]: 86% | % Degradation (PTZ) ([2]; Table 3, 30° C. for 6 months): 2.01% | % PTZ ([2]; Table 3, 30° C. for 6 months): 1.46% | % Degradation (PTZ) ([2]; Table 3, 40° C. for 8 weeks): 4.03% | % PTZ ([2]; Table 3, 40° C. for 8 weeks): 1.43% | % Degradation (PTZ) ([2]; Table 3, 54° C. for 2 weeks): 2.68% | % PTZ ([2]; Table 3, 54° C. for 2 weeks): 1.45% | % Degradation (PTZ) ([2]; Table 3, T0): 0% | % PTZ ([2]; Table 3, T0): 1.49% | % Degradation (PTZ) ([2]; Table 4, 30° C. for 6 months): 2.01% | % PTZ ([2]; Table 4, 30° C. for 6 months): 1.46% | % Degradation (PTZ) ([2]; Table 4, 40° C. for 8 weeks): 4.70% | % PTZ ([2]; Table 4, 40° C. for 8 weeks): 1.42% | % Degradation (PTZ) ([2]; Table 4, 54° C. for 2 weeks): 2.01% | % PTZ ([2]; Table 4, 54° C. for 2 weeks): 1.46% | % Degradation (PTZ) ([2]; Table 4, T0): 0% | % PTZ ([2]; Table 4, T0): 1.49%
